Results from PMC5645021 (Organic letters, 2014).

Columns and labels:
Assay type in all cases: cell-based
A549 versus H522 = experiment: Cytotoxicity toward K-Ras mutated versus non-mutated lung cancer cells; settings: human lung cancer cells
SW620 Ad300 = experiment: MTT cytotoxicity, SW620 Ad300; settings: for FR (fold resistance): IC50 ratio for SW620 Ad300 versus SW620; for IC50: read-out: MTT cytotoxicity SW620 Ad300 IC50, P-gp overexpressing daughter cell line SW620 Ad300; for FR (fold resistance), control study: SW620 Ad300 versus SW620
[1] = molecular target: oncogenic mutant K-Ras (mGFP-K-RasG12 V) (Homo sapiens, UniProt P01116, G12V); experiment: K-Ras PM mislocalization; settings: for K-Ras PM mislocalization Emax: maximum extent of mislocalization of K-Ras from the PM to the endomembrane, MDCK cells; for IC50: read-out: K-Ras PM mislocalization IC50, mGFP-K-RasG12V in intact MDCK cells
oncogenic mutant K-Ras (mGFP-K-RasG12 V), sequence (P01116 1-188 isoform P01116-2 G12V): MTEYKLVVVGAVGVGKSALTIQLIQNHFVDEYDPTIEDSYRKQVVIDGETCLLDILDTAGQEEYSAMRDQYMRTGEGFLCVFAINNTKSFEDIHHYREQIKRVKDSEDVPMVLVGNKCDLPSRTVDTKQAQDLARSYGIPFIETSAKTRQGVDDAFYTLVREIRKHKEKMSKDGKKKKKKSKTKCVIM

SW620 = experiment: MTT cytotoxicity, SW620; settings: read-out: MTT cytotoxicity SW620 IC50; colon cancer cell line SW620

Compound | increased cytotoxicity toward K-Ras mutated A549 versus non-mutated H522 (A549 versus H522) | FR (fold resistance) (SW620 Ad300) | IC50 (SW620 Ad300) | K-Ras PM mislocalization Emax [1] | IC50 [1] | IC50 (SW620) | FR (fold resistance), control study (SW620 Ad300; coadministration with the P-gp inhibitor verapamil) | FR (fold resistance), control study (SW620 Ad300; doxorubicin alone)
CC[C@H](C)[C@@H]1OC(=O)C(C)(C)[C@@H](O)[C@@H](Cc2ccccc2)OC(=O)[C@H](C(C)C)OC(=O)[C@@H](NC(=O)c2cccc(NC=O)c2O)[C@H](C)OC1=O [compound 1, neoantimycin] | 50 fold | 3.8 | 230 nM | 0.60 ± 0.03 | 2.9 ± 0.7 nM | 60 nM | – | –
CC(C)[C@@H]1OC(=O)[C@@H](NC(=O)c2cccc(NC=O)c2O)[C@H](C)OC(=O)[C@H](C(C)C)OC(=O)C(C)(C)[C@@H](O)[C@@H](Cc2ccccc2)OC1=O [compound 2, neoantimycin F] | – | 3.8 | 610 nM | 0.56 ± 0.01 | 9.9 ± 0.2 nM | 160 nM | – | –
CCC(C)[C@@H]1OC(=O)[C@H](C)OC(=O)[C@@H](NC(=O)c2cccc(NC=O)c2O)[C@@H](C)OC(=O)[C@H](CC(C)C)OC(=O)C(C)(C)C(=O)[C@H](CC(C)C)NC1=O (stereo partly drawn) [compound 7, respirantin, reference compound] | > 33 fold | 3.0 | 30 nM | 0.78 ± 0.02 | 0.7 ± 0.1 nM | 10 nM | – | –
CCCC[C@H]1C(=O)O[C@H](C)[C@H](NC(=O)c2cccc(NC=O)c2O)C(=O)O[C@@H](C)[C@@H]1OC(=O)C(C)C [compound 6, antimycin A4a, reference compound] | – | 3.7 | 440 nM | 0.79 ± 0.02 | 3.7 ± 0.3 nM | 120 nM | – | –
COc1cccc2c1C(=O)c1c(O)c3c(c(O)c1C2=O)C[C@@](O)(C(=O)CO)C[C@@H]3O[C@H]1C[C@H](N)[C@H](O)[C@H](C)O1 [doxorubicin] | – | – | – | – | – | – | 2.4 | 22
CCC(C)C1OC(=O)C(NC(=O)c2cccc(NC=O)c2O)C(C)OC(=O)C(C(C)CC)OC(=O)C(C)(C)C(O)C(Cc2ccccc2)OC1=O (stereo not drawn) [compound 3, neoantimycin G] | – | – | 260 nM | 0.62 ± 0.01 | 7.9 ± 0.5 nM | 40 nM | – | –
CC[C@H](C)[C@@H]1OC(=O)C(C)(C)C(=O)[C@@H](Cc2ccccc2)OC(=O)[C@H](C(C)C)OC(=O)[C@@H](NC(=O)c2cccc(NC=O)c2O)[C@@H](C)OC1=O [compound 4, neoantimycin H] | – | 2.7 | 190 nM | 0.60 ± 0.02 | 6.4 ± 0.5 nM | 70 nM | – | –
CCCCCC[C@H]1C(=O)O[C@H](C)[C@H](NC(=O)c2cccc(NC=O)c2O)C(=O)O[C@@H](C)[C@@H]1OC(=O)C(C)C [compound 5, antimycin A2a, reference compound] | > 26 fold | 2.1 | 320 nM | 0.78 ± 0.02 | 7.9 ± 0.3 nM | 150 nM | – | –
